Columns and labels:
guinea pig ileum = assay: Assay of opioid activity by guinea pig ileum assay (electrically evoked contraction of longitudinal muscle strip); details: for IC50: Cavia porcellus, inhibition of electrically evoked contraction, absence of antagonist; for Ke (nM) Naloxone (100 nM): naloxone as μ antagonist; for Ke (nM) nor-BNI (5 nM): nor-BNI as κ antagonist
Procedure: Assay of opioid activity by Guinea pig ileum assay.
Male Hartley guinea pigs were used. The guinea pig was killed with a blow, and the ileum excised; the lumen of ileum was washed with a nutritious fluid; and only a piece of longitudinal muscle was stripped. This longitudinal muscle strip was suspended in a Magnus tube filled with Krebes-Henseleit solution (NaCl 135 mM; KCl 4.8 mM; CaCl2 3.4 mM; KH2PO4 1.2 mM; NaHCO3 8.3 mM; MgSO4, 2.5 mM; and glucose 11 mM) kept at 37° C., and gassed with a mixture of 5% carbon dioxide and 95% oxygen. Electrical stimulation was delivered at a rate of 0.1 Hz with 0.5 ms pulses through ring-shaped platinum electrodes placed at upper and lower levels in a Magnus tube. Tissue contractions were recorded via an isometric transducer on a polygraph.
The test drug was cumulatively added until it inhibited over 50% the contraction of specimen evoked by the electrical stimulation, in the presence or absence of naloxone as a μ antagonist, or nor-BNI as a κ antagonist, and IC50s were calculated for respective experimental conditions. From the difference in drug efficacy in the presence and absence of the antagonist, Ke values were calculated on the basis of following equations.
(§1) Ke=[Concentration of antagonist added]/(Dose ratio−1)
Dose ratio=IC50 in the presence of antagonist/IC50 in the absence of antagonist

mouse vas deferens = assay: Assay of opioid activity by mouse vas deferens assay (electrically evoked contraction); details: for Ke (nM) NTI (10 nM): NTI as δ antagonist; for IC50: inhibition of electrically evoked contraction, absence of antagonist; for Ke (nM) Naloxone (30 nM): naloxone as μ antagonist; for Ke (nM) nor-BNI (10 nM): nor-BNI as κ antagonist
Procedure: Assay of opioid activity by mouse vas deferens assay
Male ddY mice were used for the experiment. The vas deferens specimen removed from the animal was suspended in a Magnus tube filled with Krebes-Henseleit solution (NaCl […]; KCl 5.9 mM; CaCl2 2.5 mM; NaH2PO4 1.2 mM; NaHCO3 15.3 mM; and glucose 11.5 mM) kept at 37° C., and gassed with a mixture of 5% carbon dioxide and 95% oxygen. Electrical stimulation was delivered at a rate of 0.1 Hz with 1.0 ms pulses through ring-shaped platinum electrodes placed at upper and lower levels in a Magnus tube. Tissue contractions were recorded via an isometric transducer on a polygraph.
test drug was cumulatively added until it inhibited over 50% the contraction of specimen evoked by the electrical stimulation, in the presence or absence of naloxone as a μ antagonist, nor-BNI as a κ antagonist, or NTI as a δ antagonist and IC50s were calculated for respective experimental conditions. From the difference in drug efficacy in the presence and absence of the antagonist, Ke values were calculated on the basis of following equations.
as §1
IC50 ratio=IC50 in the presence of antagonist/IC50 in the absence of antagonist

[1] = tested on: itching of erupted lesions of urticaria; assay: Topical application to erupted lesions of urticaria, intensity of itching; assay type: in vivo, human; design: key to Intensity of itching five minutes after the treatment: itching whose intensity was evaluated as moderate (ranked as “++”); completely eradicated five minutes after the treatment (ranked as “−”); details: male adult
Procedure: An opioid compound selectively acting on a κ receptor, (−)-17-(cyclopropylmethyl)-3,14β-dihydroxy-4,5α-epoxy-6β-[N-methyl-trans-3-(3-furyl)acrylamido]morphinan hyrochloride 7, [drawing 52]
was dissolved in physiological saline, to give an aqueous solution with a concentration of 40 μg/ml. This aqueous solution was topically applied to three erupted lesions of urticaria, on the lower limb of an adult at a dose of 0.2 μg/cm^2.

[2] = tested on: itching due to atopic dermatitis; assay: Topical application to skin lesions of a patient with atopic dermatitis, intensity of itching; assay type: in vivo, human
Procedure: The drug solution was applied on five spots with a volume of about 50 μl per 10 cm^2, which was equivalent to a topical dose of 0.2 μg/cm^2. As a comparison, indomethacin cream (having a drug concentration of 7.5 mg/g) was applied at a dose of 75 μg/cm2 in the same manner.

[3] = tested on: scratching behavior induced by Compound 48/80; design: species or system ddY mice; details: mouse, in vivo, sc
[4] = topical, Compound 7 0.2 μg/cm^2, indomethacin cream 75 μg/cm2, prior to application +++

Row | Structure (SMILES) | IC50 (guinea pig ileum) [nM] | Ke (nM) Naloxone (100 nM) (guinea pig ileum) [nM] | Ke (nM) nor-BNI (5 nM) (guinea pig ileum) [nM] | Ke (nM) NTI (10 nM) (mouse vas deferens) [nM] | IC50 (mouse vas deferens) [nM] | Ke (nM) Naloxone (30 nM) (mouse vas deferens) [nM] | Ke (nM) nor-BNI (10 nM) (mouse vas deferens) [nM] | melting point | Inhibition (%) of scratching behavior [3] [%] | further results
1 | CN(C(=O)C#Cc1ccc(C(F)(F)F)cc1)[C@@H]1CC[C@@]2(O)[C@H]3Cc4ccc(O)c5c4[C@@]2(CC[N+]3([O-])CC2CC2)[C@H]1O5 (stereo partly drawn) [Compound 5, 17-cyclopropylmethyl-4,5α-epoxy-3,14β-dihydroxy-6β-[N-methyl-3-(4-trifluoromethylphenyl)propyolamido]morphinan-N-oxide] | 1.55 | 29.5 | 0.19 | 5.0 | 0.59 | 5.9 | 0.33 | 205 to 208 °C (dec.) |  | 
2 | CN(C(=O)/C=C/c1ccoc1)[C@@H]1CC[C@@]2(O)[C@H]3Cc4ccc(O)c5c4[C@@]2(CCN3CC2CC2)[C@H]1O5.Cl [Compound 7, (−)-17-(cyclopropylmethyl)-3,14β-dihydroxy-4,5α-epoxy-6β-[N-methyl-trans-3-(3-furyl)acrylamido]morphinan hyrochloride] |  |  |  |  |  |  |  |  |  | Intensity of itching five minutes after the treatment ([1]; urticaria lesions on lower limb, topical 0.2 μg/cm^2 (40 μg/ml in saline), before treatment “++”): −; Duration of no itching state ([1]; urticaria, topical 0.2 μg/cm^2): about five; Duration of no itching state ([2]; topical 0.2 μg/cm^2): at least three; Relief from itching (in words) ([2]; topical, Compound 7 0.2 μg/cm^2 (in five minutes), indomethacin cream 75 μg/cm2): eradicated itching completely; Intensity of itching 5 minutes after application [2, 4]: −; Intensity of itching 10 minutes after application [2, 4]: −; Intensity of itching 3 hours after application [2, 4]: −
3 | CN(C(=O)Cc1ccc(Cl)c(Cl)c1)C(CN1CCCC1)c1ccccc1.Cl (stereo not drawn) [Compound 20] |  |  |  |  |  |  |  |  | 62 | 
4 | COc1cccc(/C=C/C(=O)N(C)[C@@H]2CC[C@@]3(O)[C@H]4Cc5ccc(O)c6c5[C@@]3(CC[N+]4([O-])CC3CC3)[C@H]2O6)c1 (stereo partly drawn) [Compound 4, 17-cyclopropylmethyl-4,5α-epoxy-3,14β-dihydroxy-6β-(N-methyl-3-methoxycinnamamido)morphinan-N-oxide] | 4.09 | 28.7 | 0.09 | 11 | 1.8 | 50 | 0.67 | 234 to 236.8 °C (dec.) |  | 
5 | Cc1cccc(C#CC(=O)N(C)[C@@H]2CC[C@@]3(O)[C@H]4Cc5ccc(O)c6c5[C@@]3(CC[N+]4([O-])CC3CC3)[C@H]2O6)c1 (stereo partly drawn) [Compound 6, 17-cyclopropylmethyl-4,5α-epoxy-3,14β-dihydroxy-6β-[N-methyl-3-(3-methylphenyl)propyolamido]morphinan-N-oxide] | 11.3 | 75.1 | 0.89 | 20 | 4.6 |  | 0.26 | 192 to 202 °C (dec.) |  | 
6 | CN(C(=O)/C=C/c1ccoc1)[C@@H]1CC[C@@]2(O)[C@H]3Cc4ccc(O)c5c4[C@@]2(CC[N+]3([O-])CC2CC2)[C@H]1O5 (stereo partly drawn) [Compound 3, 17-cyclopropylmethyl-4,5α-epoxy-3,14β-dihydroxy-6β-[N-methyl-trans-3-(3-furyl)acrylamido]morphinan-N-oxide] | 1.06 |  | 0.02 |  | 2.14 | 30.48 | 0.040 | 238 to 239.8 °C (dec.) |  | 
7 | Cl.O=C(C1CCc2cc(Cl)c(Cl)cc21)N1CCSCC1CN1CCCC1 (stereo not drawn) [Compound 21, 3-(1-pyrrolidinylmethyl)-4-[5,6-dichloro-1-indancarbonyl]-tetrahydro-1,4-thiazine hydrochloride] |  |  |  |  |  |  |  |  | 23 | 
8 | COc1cccc(/C=C/C(=O)N(C)[C@@H]2CC[C@@]3(O)[C@H]4Cc5ccc(O)c6c5[C@@]3(CC[N+]4(C)CC3CC3)[C@H]2O6)c1.[I-] (stereo partly drawn) [Compound 2, 17-cyclopropylmethyl-3,14β-dihydroxy-4,5α-epoxy-17-methyl-6β-(N-methyl-3-methoxycinnamamido)morphinanium.iodide] | 6.71 | 98.2 | 0.54 | 25 | 5.9 | 100 | 0.45 |  |  | 
9 | CN(C(=O)/C=C/c1ccoc1)[C@@H]1CC[C@@]2(O)[C@H]3Cc4ccc(O)c5c4[C@@]2(CC[N+]3(C)CC2CC2)[C@H]1O5.[I-] (stereo partly drawn) [Compound 1, 17-cyclopropylmethyl-3,14β-dihydroxy-4,5α-epoxy-17-methyl-6β-(N-methyl-trans-3-(3-furyl)acrylamido)morphinanium iodide] | 1.94 | 16.67 | 0.03 | 11.23 | 4.42 | 14.18 | 0.17 | 202.4 to 207.9 °C (dec.) |  | 
10 | CN(C(=O)NCc1ccccc1)[C@H]1CC[C@@]2(O)[C@H]3Cc4ccc(O)c5c4[C@@]2(CCN3CC2CC2)[C@H]1O5.O=C(O)C(O)C(O)C(=O)O [Compound 12, 17-cyclopropylmethyl-3,14β-dihydroxy-4,5α-epoxy-6α-(N-methyl-N-benzylureido)morphinan tartrate] |  |  |  |  |  |  |  |  | 39 | 

Source: patent US6440987B1, “Antipruritic” (Toray Industries, Inc., priority 1996, dated 2002)
